Experimental data as given in ChEMBL document CHEMBL3507680, “University of Dundee, Gates Library screen for HepG2 cell viability”.

Assay: Human HepG2 cell viability assay in 384 well format
Format: toxicity, cell-based
Set-up: dose 125 nL, time 70.5 hour; cytotoxicity at 70.5 h: concentration not given beside the values
Conditions: HepG2 cells, read-out: Inhibition

SMILES	cytotoxicity at 70.5 h [%]
Cc1cccc2cc(CN3CCCN4CCC[C@H]4C3)c(=O)[nH]c12	1.79
CCCc1noc(-c2cn(CC(=O)N(CC)CC)nn2)n1	-4.55
NCc1cn(CC2CCCN(C(=O)CC3=CCCCC3)C2)nn1 (centres undefined)	-11.9
CCc1cccc(CC)c1NC(=O)c1ccccc1N(C)S(C)(=O)=O	-8.14
O=C(CO)N1CCCC2(CCC(=O)N(CC3CC3)C2)C1 (centres undefined)	-11
CC(C)(CNC1CCCN(Cc2ccccc2F)C1)CN1CCOCC1 (centres undefined)	-15.7
COCc1nc(N2CCC(CCO)CC2)c2cnn(C)c2n1	2.73
O=C(c1ccon1)N1CCc2ncnc(NCc3ccccn3)c2CC1	0.424
Cc1cc(-c2nn(C)c(Cl)c2CN2CCOC(C(=O)O)C2)no1 (centres undefined)	13.8
N#Cc1ccccc1CN1CCC(c2nccn2CC(N)=O)CC1	-4.95
COc1ccc2c(=O)n(CC3CC3)ccc2c1OC	2.47
CCOCc1nc2c(c(NCCNC(C)=O)n1)CCN(C(C)=O)CC2	16.6
CCCN1CCN(C(=O)c2cnccc2C)[C@H]2CS(=O)(=O)C[C@H]21	-3.96
O=C(CN1CCCC1c1nc(-c2ccccc2)no1)N1CCOCC1 (centres undefined)	-4.9
O=C(O)CN1CCc2onc(C(c3ccccc3)c3ccccc3)c2C1	-3.48
COc1cc2c(cc1OC)CN(C(C(=O)O)c1c(C)nn(C)c1C)CC2 (centres undefined)	-6.71
COc1cc(C(=O)O)cc(I)c1OCC(=O)NCCc1ccccc1	-4.57
O=C(COCc1ccccc1)N1CCN(c2ccc(Cl)cn2)CC1	-4.29
O=C(CCC1CCCC1)N1C[C@H]2CC[C@@H]1CN(Cc1ccncc1)C2	-11.9
O=c1[nH]c(NCc2cccc(-c3ccccc3)c2)nc2c1CCNC2	-21
CC(C)(C)CN1CCCC2(CCN(C(=O)c3cn[nH]c3)C2)C1 (centres undefined)	-9.2
Cc1ccc2c(C)c(C(=O)NCc3csc(N)n3)oc2c1	-13
Cc1ccc2nc(C)c(C)c(C(=O)NCCCn3ccnn3)c2c1	3.79
CCn1cnnc1CCNc1nc(C)cc(C)c1C#N	27.1
CS(=O)(=O)N1CCc2[nH]cnc2C12CCN(C(=O)c1ccccc1)CC2	-1.52
Cc1csc2c(N3CCC(NCCCc4ccncc4)CC3)ncnc12	-7.45
O=C1[C@H]2CC[C@H](CN(C3CSCCSC3)C2)N1Cc1cscn1	-7.49

SMILES	cytotoxicity at 70.5 h [%]
O=C(c1cncc(N2CCC(O)(CO)CC2)n1)N1CCCC1	-9.52
Cc1cc(NCc2cccnc2)n2nc(C)cc2n1	-8.91
CCc1nc(C)c(C(=O)N2C[C@H]3CC[C@@H]2CN(S(=O)(=O)N(C)C)C3)s1	8.88
N#Cc1ccc(CN2CCN(C(=O)C3CCC3)[C@@H]3CS(=O)(=O)C[C@@H]32)cc1	-6.79
CC(C)(CO)NC(=O)C1CCC(=O)N(Cc2ccc(Cl)cc2)C1 (centres undefined)	-8.51
Cc1ccccc1Oc1ncccc1CNS(C)(=O)=O	19.1
CN(C)c1ccc(CC(=O)N[C@@H]2CCNC[C@H]2O)cc1	-3.58
CN(C)Cc1ccc(C2CCCCN2C(=O)c2cc(C3CC3)n[nH]2)cc1 (centres undefined)	-5
Cc1cc(=O)[nH]c(SCC(=O)N(C)CC2Cc3ccccc3CN2C)n1 (centres undefined)	-6.08
CN(Cc1ccccc1)CC1(O)CCCN(CC(C)(C)C)C1=O (centres undefined)	-3.59
Cn1nc(C(=O)N2CCCCC2c2nc3cc(F)ccc3[nH]2)ccc1=O (centres undefined)	6.51
CCCc1nc(C(=O)N2CCCn3nc(CCC(=O)O)cc3C2)cs1	-9.99
CSc1ccc(S(=O)(=O)N2CCCCC2CCNC(C)=O)cc1 (centres undefined)	-9.19
CSc1ccccc1C(C(=O)O)N1CCN(Cc2ccccn2)CC1 (centres undefined)	17
Cc1nc(CN2CCCC(CCc3ccc(F)cc3F)C2)c[nH]1 (centres undefined)	-1.86
c1ccc(-c2noc3c2CN(CC2CC2)CC3)cc1	-3.25
O=C(O)[C@@H]1CN(C(=O)c2cc(C3CC3)n[nH]2)C[C@H]1c1cccc(F)c1	-9.94
Cn1ccnc1CN1C[C@@H](CN2CCC(CO)CC2)[C@@H](CO)C1	-7.99
CN1CCCC2(CCN(C(=O)CCn3cncn3)C2)C1=O (centres undefined)	-10.5
Cc1nc[nH]c1CN1C[C@@H]2CC[C@H](C1)N(C(=O)CCNS(C)(=O)=O)C2	-1.67
CN1CCCC1c1ccc(C(=O)N2CCc3ccccc3C2)s1 (centres undefined)	17.6
COc1cccc(OCc2cc(C(=O)NC[C@H]3CCCN3)n[nH]2)c1	-4.69
C[C@@H]1CN(C(=O)c2cnc(C3CC3)nc2)CC[C@@]1(O)C1CCOCC1	-8.12
CC(C)n1ccnc1C1CCN(Cc2ccc(Cl)c(F)c2)CC1	-5.05
COCc1nc(CN2CCC3(CCCO3)CCC2=O)no1 (centres undefined)	-7.37
Cc1ccc(C#N)c(N2CCC(c3nccn3Cc3cscn3)CC2)n1	-8.13
CCOCCC(=O)N1CCCC(c2ncc[nH]2)C1 (centres undefined)	-0.67

SMILES	cytotoxicity at 70.5 h [%]
O=C(CCC1CCN(Cc2ncc[nH]2)CC1)Nc1ccccc1Cl	-10.7
COc1cccc2c1OCC(C(=O)N1CCC(N3CCOC3=O)CC1)C2 (centres undefined)	-8.52
CC(=O)N1CCCC1c1ccc(C(=O)N2CCOCC2)s1 (centres undefined)	14.5
Cc1ccc(C)c(C(C(=O)O)N2CCCN(Cc3ccccn3)CC2)c1 (centres undefined)	-8.23
O=C(c1cccnc1O)N(Cc1ccsc1)CC1CCCO1 (centres undefined)	8.65
CCC(=O)N1CCC(c2nnc(Cn3cccn3)n2C2CC2)CC1	-6.95
Cc1nc(CCNC(=O)C2CC(=O)N(C(C)(C)C)C2)sc1C (centres undefined)	-8.11
Cc1[nH]ccc1C(=O)N1CCC(c2nnc(Cn3cccn3)n2C)CC1	-0.908
CCc1nnc(CN(C)c2nc(C3CCCC3)nc3c2cnn3C)o1	-6.42
c1cc(-c2cnccn2)cc(-c2ccn(CCN3CCCC3)n2)c1	12.2
Cc1ccc(NC(=O)N2C[C@H]3CC[C@@H]2CN(Cc2cscn2)C3)cc1	-6.47
O=C(CCc1ccccc1)C1CCCN(C(=O)c2ncc(F)cc2F)C1 (centres undefined)	-3.9
CC(CCN1CCn2nc(CNC(=O)N(C)C)cc2C1)c1ccccc1 (centres undefined)	-6.81
Cc1nc(C2CCN(C(=O)CO)CC2)cc(N2CCOCC2)n1	-7.87
CC[C@@H](CO)NC(=O)c1coc(COc2ccc(OC)cc2)n1	-13
COCCNc1nc2c(c(NCc3ccncc3)n1)CCNCC2	-7.33
Clc1ccccc1C1(c2ccnc(CC3CC3)n2)CCNCC1	4.53
N#Cc1ccnc(N2CCC(c3nccn3Cc3cscn3)CC2)c1	31.3
Cc1cc(C(=O)N[C@@H]2CCNC[C@H]2O)ccc1Cl	-6.34
Fc1ccc2[nH]c(C3CCCN3CCc3ccccn3)nc2c1 (centres undefined)	-8.26
O=C(c1ccc[nH]1)N1CCC(c2nccn2Cc2ccncc2)CC1	-0.778
COCC1CCN(C(=O)c2cccc(S(=O)(=O)NC3CCCC3)c2)C1 (centres undefined)	-6.74
CCN1CC(C(=O)N(C)Cc2ccon2)CC1=O (centres undefined)	25.3
CN(CCO)Cc1nnc(C2CCN(C(=O)c3cccnc3)CC2)n1C	-10.6
CNCCc1nc2cc(Cl)ccc2[nH]1	16.5
